Several values for one entry are separate records, joined by “and”; a condition that tells them apart may be missing. Equal values may be shown once. Where a SMILES comes first, the peptide text is derived from it.
Columns and labels:
[1] = test system: CLP-induced serum cytokines and chemokines; test: Serum cytokines/chemokines after CLP, murine cytokine antibody arrays; format: in vivo, mouse; design: BLC / G-CSF / GM-CSF / IL-6 / KC / MCP-1 / MIP-2 / MIP-1 gama / PF-4 / sTNF-RI: unit not given here; details: for BLC / G-CSF / GM-CSF / IL-6 / KC / MCP-1 / MIP-1 gama / MIP-2 / PF-4 / sTNF-RI: serum 24 h, individual values
Description: Experimental sepsis was induced in BALB/c mice via CLP as previously described. […] The animals were randomly assigned to the control vehicle (n = 10 or n = 20) or experimental groups (n = 10 or n = 20). P2 (5.0 mg/kg), P2-1 (0.1 mg/kg or 1.0 mg/kg), or tetranectin N-terminal deletion mutant (ΔTN) (1.0 mg/kg) were administered intraperitoneally (i.p.) at the indicated time points, and survival rates were monitored. To elucidate P2-1’s protective mechanisms, a separate group of BALB/c mice (n = 4) underwent CLP and received P2-1 (1.0 mg/kg) at 2 h and 20 h post-CLP. At 24 h post-CLP, the animals were euthanized, blood was collected, and serum cytokines and chemokines were measured via murine cytokine antibody arrays as previously described. More details are presented in Additional file 1: Methods.
The levels of cytokines and chemokines in mouse serum and joint tissue lysates, or human PBMC culture supernatants, were determined via murine or human cytokine antibody arrays (e.g., Cat. #AAM-CYM-3–8 or Cat. #AAH-CYT-3–8, RayBiotech Inc., Norcross, GA, USA) as previously described. For the sepsis model, blood samples were collected from the mice (n = 4) at 24 h post-CLP. For the CAIA model, soft tissues from the hindpaw and ankle joints were carefully harvested from normal (n = 2) and CAIA (n = 4) mice using a previously established protocol. Briefly, 0.5 g of fresh soft tissue was cut into 3 mm pieces and mixed with 400 µl of a hypertonic solution (500 ml of PBS with 4.5 g of NaCl and 2 × protease inhibitor cocktail) in a 10 ml syringe. Mechanical extrusion, involving 30 rapid back-and-forth movements of the plunger, was then performed. The expelled extracellular fluid was collected, immediately aliquoted, and stored at −20 °C until analysis. Cell-conditioned medium was collected from PBMC cultures after 16 h of stimulation. Arrays were performed according to the manufacturer’s protocol, followed by chemiluminescent detection and densitometric quantification as previously described.
BALB/c mice subjected to CLP-induced sepsis received P2-1 (0.1 or 1.0 mg/kg) intraperitoneally twice, at 2 h and 20 h post-CLP. At 24 h post-CLP, the animals were sacrificed, and blood was harvested for cytokine and chemokine measurements via cytokine antibody arrays. ^*P < 0.05 vs. the negative control (“- CLP”); ^#P < 0.05 vs. the positive control (“ + CLP”) group, non-parametric Kruskal-Wallis ANOVA test. CLP cecal ligation and puncture, BLC B-lymphocyte chemoattractant, CCL C–C motif chemokine ligand, CXCL C-X-C motif chemokine ligand, IL interleukin, G-CSF granulocyte colony-stimulating factor, KC keratinocyte-derived chemokine, GRO growth-regulated oncogene, MIP macrophage inflammatory protein, PF platelet factor, sTNFR soluble tumor necrosis factor receptor

[2] = test system: CAIA-induced pain sensitivity in BALB/c mice; test: Mechanical allodynia, Von Frey filaments, in CAIA mice; format: in vivo, mouse; design: key to CAIA-induced pain sensitivity (Von Frey score) / CAIA-induced pain response (Vor Frey score): 50% paw withdrawal threshold, force in g; details: for CAIA-induced pain response (Vor Frey score): female, effect of mAb2, P2-1
Description: Mechanical allodynia was assessed using Von Frey filaments (Stoelting Co., Wood Dale, IL, USA) applied to the plantar surface of the hind paws as previously described. The mice (n = 6–10) were habituated to individual transparent enclosures on an elevated wire mesh platform. Calibrated Von Frey filaments (0.008–2.000 g) were applied for 2–3 s or until a withdrawal response occurred. The “up-down” method determines the 50% paw withdrawal threshold, defined as the force required to elicit a withdrawal response in 50% of applications.

human PBMCs = test: HMGB1-induced cytokine/chemokine secretion by PBMCs, cytokine antibody arrays; format: cell-based; details: P2-1 5.0 or 10.0 µg/ml, 16 h
Description: Human blood was purchased from the New York Blood Center (Long Island City, NY, USA), and PBMCs were isolated via density gradient centrifugation through Ficoll (Ficoll-Paque PLUS) as previously described. PBMCs were cultured in RPMI-1640 supplemented with 10% human serum, 2 mmol/L L-glutamine, 100 U/ml penicillin, and 100 µg/ml streptomycin (all from Invitrogen, Carlsbad, CA, USA). For experiments, PBMCs were stimulated with recombinant HMGB1 (0.5 or 2.0 µg/ml) for 16 h, either alone or in combination with P2-1 at 5.0 or 10.0 µg/ml. Cell-free supernatants were collected for analysis of cytokine/chemokine levels via cytokine antibody arrays, or pCTS-L levels via Western blotting analysis as previously described.
The levels of cytokines and chemokines in mouse serum and joint tissue lysates, or human PBMC culture supernatants, were determined via murine or human cytokine antibody arrays (e.g., Cat. #AAM-CYM-3–8 or Cat. #AAH-CYT-3–8, RayBiotech Inc., Norcross, GA, USA) as previously described. For the sepsis model, blood samples were collected from the mice (n = 4) at 24 h post-CLP. […] Arrays were performed according to the manufacturer’s protocol, followed by chemiluminescent detection and densitometric quantification as previously described. […]

[3] = CLP + P2-1 0.1 mg/kg, 0.1 mg/kg

Compound: CCCC[C@H](NC(=O)[C@H](Cc1c[nH]cn1)NC(=O)[C@@H](NC(=O)[C@H](CCCCN)NC(=O)[C@@H](N)[C@@H](C)O)C(C)C)C(=O)N[C@@H](CCCCN)C(=O)N[C@@H](CO)C(=O)N[C@@H](Cc1ccccc1)C(=O)N[C@@H](CC(C)C)C(=O)N[C@@H](C)C(=O)N[C@@H](Cc1ccccc1)C(=O)N[C@@H](CCC(N)=O)C(=O)N[C@H](C(=O)N[C@@H](CCCCN)C(=O)N[C@H](C(=O)O)[C@@H](C)O)[C@@H](C)O [P2-1] (HELM PEPTIDE1{T.K.V.H.[Nle].K.S.F.L.A.F.Q.T.K.T}$$$$V2.0; N-terminus and C-terminus assumed)
- BLC ([1]; CLP + P2-1 0.1 mg/kg i.p. 2 h and 20 h post-CLP, 0.1 mg/kg): 257.4 and 202.1 and 204.2 and 224.3
- G-CSF [1, 3]: 161.4 and 173.4 and 290.4 and 305.7
- GM-CSF [1, 3]: 23.2 and 56 and 52.8 and 13.6
- IL-6 [1, 3]: 59.36 and 56.19 and 57.95 and 55.32
- KC [1, 3]: 128.7 and 116.3 and 31.9 and 105.9
- MCP-1 [1, 3]: 25.4 and 25.6 and 31.2 and 21.8
- MIP-1 gama [1, 3]: 280.3 and 263.7 and 278.8 and 275.6
- MIP-2 [1, 3]: 203.2 and 193.1 and 174.2 and 159.2
- PF-4 [1, 3]: 302.3 and 268.3 and 285.4 and 298.4
- sTNF-RI [1, 3]: 143.4 and 116.1 and 179.9 and 149.3
- BLC ([1]; CLP + P2-1 1.0 mg/kg i.p. 2 h and 20 h post-CLP, 1 mg/kg): 42.8 and 33.1 and 30.9 and 35.4
- G-CSF ([1]; CLP + P2-1 1.0 mg/kg, 1 mg/kg): 111.9 and 128.7 and 120.4 and 100.4
- GM-CSF ([1]; CLP + P2-1 1.0 mg/kg, 1 mg/kg): 0.79 and 1.5 and 1.2 and 3.4
- IL-6 ([1]; CLP + P2-1 1.0 mg/kg, 1 mg/kg): 16.8 and 16.2 and 14.3 and 20.4
- KC ([1]; CLP + P2-1 1.0 mg/kg, 1 mg/kg): 151.9 and 155 and 10.5 and 15.5
- MCP-1 ([1]; CLP + P2-1 1.0 mg/kg, 1 mg/kg): 6.8 and 7.9 and 7.4 and 5.2
- MIP-1 gama ([1]; CLP + P2-1 1.0 mg/kg, 1 mg/kg): 128.6 and 137.5 and 54.5 and 68.8
- MIP-2 ([1]; CLP + P2-1 1.0 mg/kg, 1 mg/kg): 172.1 and 177.3 and 14.9 and 12.4
- PF-4 ([1]; CLP + P2-1 1.0 mg/kg, 1 mg/kg): 109.2 and 118.3 and 114.4 and 64.9
- sTNF-RI ([1]; CLP + P2-1 1.0 mg/kg, 1 mg/kg): 21.5 and 32.7 and 198.2 and 143.4
- sepsis-induced systemic cytokines/chemokines, in words ([1]; P2-1 i.p. at 2 h and 20 h post-CLP, blood at 24 h, BLC, G-CSF, IL-6, KC, MIP-1γ, MIP-2, PF-4, sTNFRI): significantly reduced sepsis-induced systemic accumulation
- CAIA-induced pain sensitivity (Von Frey score) ([2]; CAIA + P2-1 (Day 10), individual values, P = 0.04443 vs. CAIA + Vehicle): 0.14 and 0.17 and 1.23 and 0.05 and 0.75 and 0.26 and 0.09 and 0.57 and 0.18 and 0.16 and 0.44 and 0.78
- pain sensitivity, in words ([2]; P2-1 prophylactic): significantly reduced CAIA-induced pain sensitivity through partial restoration of mechanical withdrawal thresholds
- pain sensitivity, in words ([2]; P2-1 therapeutic, Von Frey): significantly reduced CAIA-induced pain sensitivity by partially restoring withdrawal thresholds to mechanical stimuli
- CAIA-induced pain response (Vor Frey score) ([2]; Day 6, individual values): 0.37 and 0.11 and 0.21 and 0.16 and 1.19
- CAIA-induced pain response (Vor Frey score) ([2]; Day 10, individual values, P = 0.04443 vs. CAIA + Vehicle): 0.57 and 0.31 and 0.96 and 0.32 and 0.44
- HMGB1-induced cytokine/chemokine secretion, in words (human PBMCs): did not broadly inhibit the secretion of these HMGB1-induced cytokines and chemokines

Reference: article PMC12914960, “Repurposing a detrimental antibody epitope as targeted therapeutics for sepsis and rheumatoid arthritis” (Military Medical Research, 2026)
